How the values were obtained:
Format in all cases: in vivo
[1] = system: Diabrotica balteata (Corn Root Worm); assay: Diabrotica balteata (corn root worm), sprayed maize sprouts; settings: 96 h, application rate of 200 ppm, L2 larvae on maize sprouts, 4 days after infestation
Protocol: Example B2: Diabrotica balteata (Corn Root Worm)
Maize sprouts, placed on an agar layer in 24-well microtiter plates were treated with aqueous test solutions prepared from 10′000 ppm DMSO stock solutions by spraying. After drying, the plates were infested with L2 larvae (6 to 10 per well). The samples were assessed for mortality and growth inhibition in comparison to untreated samples 4 days after infestation.

[2] = system: Euschistus heros (Neotropical Brown Stink Bug); assay: Euschistus heros (neotropical brown stink bug), sprayed soybean leaf; settings: 120 h, application rate of 200 ppm, N-2 nymphs on soybean leaf, 5 days after infestation
Protocol: Example B3: Euschistus heros (Neotropical Brown Stink Bug)
Soybean leaf on agar in 24-well microtiter plates were sprayed with aqueous test solutions prepared from 10′000 ppm DMSO stock solutions. After drying the leaf were infested with N-2 nymphs. The samples were assessed for mortality in comparison to untreated samples 5 days after infestation.

[3] = system: Myzus persicae (Green Peach Aphid); assay: Myzus persicae (green peach aphid), sprayed sunflower leaf discs; settings: foliar, 144 h, application rate of 200 ppm, mixed ages on sunflower leaf discs, 6 days after infestation
Protocol: Example B4: Myzus persicae (Green Peach Aphid)
Sunflower leaf discs were placed on agar in a 24-well microtiter plate and sprayed with aqueous test solutions prepared from 10′000 ppm DMSO stock solutions. After drying, the leaf discs were infested with an aphid population of mixed ages. The samples were assessed for mortality 6 days after infestation.

[4] = system: Myzus persicae (Green Peach Aphid); assay: Myzus persicae (green peach aphid), roots of pea seedlings in test solution; settings: 144 h, test rate of 24 ppm, roots of infested pea seedlings in test solution, 6 days
Protocol: Example B5: Myzus persicae (Green Peach Aphid)
Roots of pea seedlings infested with an aphid population of mixed ages were placed directly in the aqueous test solutions prepared from 10′000 DMSO stock solutions. The samples were assessed for mortality 6 days after placing seedlings in test solutions.

[5] = system: Plutella xylostella (Diamond Back Moth); assay: Plutella xylostella (diamond back moth), treated artificial diet; settings: 120 h, application rate of 200 ppm, L2 larvae on artificial diet, 5 days after infestation, read-out: effect in at least one of the two categories (mortality or growth inhibition)
Protocol: Example B6: Plutella xylostella (Diamond Back Moth)
24-well microtiter plates with artificial diet were treated with aqueous test solutions prepared from 10′000 ppm DMSO stock solutions by pipetting. After drying, the plates were infested with L2 larvae (10 to 15 per well). The samples were assessed for mortality and growth inhibition in comparison to untreated samples 5 days after infestation.
The following compounds gave an effect of at least 80% in at least one of the two categories (mortality or growth inhibition) at an application rate of 200 ppm: […]

[6] = system: Bemisia tabaci (Cotton White Fly); assay: Bemisia tabaci (cotton white fly), sprayed cotton leaf discs; settings: foliar, 144 h, application rate of 200 ppm, adult white flies on cotton leaf discs, 6 days after incubation
Protocol: Example B1: Bemisia tabaci (Cotton White Fly)
Cotton leaf discs were placed on agar in 24-well microtiter plates and sprayed with aqueous test solutions prepared from 10′000 ppm DMSO stock solutions. After drying the leaf discs were infested with adult white flies. The samples were checked for mortality 6 days after incubation.

[7] = system: Spodoptera littoralis (Egyqptian Cotton Leaf Worm); assay: Spodoptera littoralis (Egyptian cotton leaf worm), sprayed cotton leaf discs; settings: foliar, 72 h, application rate of 200 ppm, L1 larvae on cotton leaf discs, 3 days after infestation
Protocol: Example B7: Spodoptera littoralis (Egyqptian Cotton Leaf Worm)
Cotton leaf discs were placed on agar in 24-well microtiter plates and sprayed with aqueous test solutions prepared from 10′000 ppm DMSO stock solutions. After drying the leaf discs were infested with five L1 larvae. The samples were assessed for mortality, anti-feedant effect, and growth inhibition in comparison to untreated samples 3 days after infestation. Control of Spodoptera littoralis by a test sample is when at least one of mortality, anti-feedant effect, and growth inhibition is higher than the untreated sample.

[8] = system: Spodoptera littoralis (Egyqptian Cotton Leaf Worm); assay: Spodoptera littoralis (Egyptian cotton leaf worm), compound in agar taken up by lettuce roots; settings: 144 h, test rate of 12.5 ppm, uptake by lettuce roots from agar, 6 days after infestation, read-out: effect in at least one of the three categories (mortality, anti-feedancy, or growth inhibition)
From the text: Example B8: Spodoptera littoralis (Egyqptian Cotton Leaf Worm)
Test compounds were applied by pipette from 10′000 ppm DMSO stock solutions into 24-well plates and mixed with agar. Lettuce seeds were placed on the agar and the multi well plate was closed by another plate which contains also agar. After 7 days the roots have absorbed the compound and the lettuce has grown into the lid plate. The lettuce leafs were now cut off into the lid plate. Spodoptera eggs were pipetted through a plastic stencil on a humid gel blotting paper and the plate closed with it. The samples were assessed for mortality, anti-feedant effect and growth inhibition in comparison to untreated samples 6 days after infestation.
The following compounds gave an effect of at least 80% in at least one of the three categories (mortality, anti-feedancy, or growth inhibition) at a test rate of 12.5 ppm: […]

CCS(=O)(=O)c1cc(-c2cncc(Cl)c2)cnc1-c1nc2cc(C(F)(F)F)ncc2n1C [Compound P3]
≥ 80%: mortality at 200 ppm [1] | mortality at 200 ppm [2] | mortality at 200 ppm [3] | mortality at 24 ppm [4] | percent effect (mortality or growth inhibition) at 200 ppm [5]

CCS(=O)(=O)c1cc(-c2cnc(Cl)nc2)cnc1-c1nc2cc(C(F)(F)F)ncc2n1C [Compound P10]
≥ 80%: mortality at 200 ppm [6]

CCS(=O)(=O)c1cc(-n2ccccc2=O)cnc1-c1nc2cc(C(F)(F)F)ncc2n1C [Compound P26]
≥ 80%: mortality at 200 ppm [1] | mortality at 200 ppm [2] | mortality at 200 ppm [3] | mortality at 24 ppm [4] | percent effect (mortality or growth inhibition) at 200 ppm [5]

CCS(=O)(=O)c1cc(-c2ncc(Cl)cc2Cl)cnc1-c1nc2cc(C(F)(F)F)ncc2n1C [Compound P44]
≥ 80%: mortality at 200 ppm [1] | mortality at 200 ppm [2] | mortality at 200 ppm [3] | percent effect (mortality or growth inhibition) at 200 ppm [5] | percent control (mortality, anti-feedant effect or growth inhibition) at 200 ppm [7] | percent control (mortality, anti-feedancy or growth inhibition) at 12.5 ppm [8]

CCS(=O)(=O)c1cc(-c2cncc(C)c2)cnc1-c1nc2cc(C(F)(F)F)ncc2n1C [Compound P45]
≥ 80%: mortality at 200 ppm [6] | mortality at 200 ppm [1] | mortality at 200 ppm [2] | mortality at 200 ppm [3] | percent effect (mortality or growth inhibition) at 200 ppm [5] | percent control (mortality, anti-feedant effect or growth inhibition) at 200 ppm [7]

CCS(=O)(=O)c1cc(-c2ccnc(C(F)(F)F)c2)cnc1-c1nc2cc(C(F)(F)F)ncc2n1C [Compound P46]
≥ 80%: mortality at 200 ppm [6] | mortality at 200 ppm [1] | mortality at 200 ppm [2] | mortality at 200 ppm [3] | percent effect (mortality or growth inhibition) at 200 ppm [5] | percent control (mortality, anti-feedant effect or growth inhibition) at 200 ppm [7] | percent control (mortality, anti-feedancy or growth inhibition) at 12.5 ppm [8]

CCS(=O)(=O)c1cc(-c2ncccc2NC(=O)C(F)(F)F)cnc1-c1nc2cc(C(F)(F)F)ncc2n1C [Compound P49]
≥ 80%: mortality at 200 ppm [2] | mortality at 200 ppm [3] | mortality at 24 ppm [4]

CCS(=O)(=O)c1cc(-c2ncccc2C)cnc1-c1nc2cc(C(F)(F)F)ncc2n1C [Compound P50]
≥ 80%: mortality at 200 ppm [1] | mortality at 200 ppm [2] | mortality at 200 ppm [3] | percent effect (mortality or growth inhibition) at 200 ppm [5] | percent control (mortality, anti-feedant effect or growth inhibition) at 200 ppm [7] | percent control (mortality, anti-feedancy or growth inhibition) at 12.5 ppm [8]

CCS(=O)(=O)c1cc(-c2ncccc2C(F)(F)F)cnc1-c1nc2cc(C(F)(F)F)ncc2n1C [Compound P52]
≥ 80%: mortality at 200 ppm [1] | mortality at 200 ppm [2] | mortality at 200 ppm [3] | percent effect (mortality or growth inhibition) at 200 ppm [5] | percent control (mortality, anti-feedant effect or growth inhibition) at 200 ppm [7] | percent control (mortality, anti-feedancy or growth inhibition) at 12.5 ppm [8]

CCS(=O)(=O)c1cc(-c2ncc(C(F)(F)F)cc2F)cnc1-c1nc2cc(C(F)(F)F)ncc2n1C [Compound P54]
≥ 80%: mortality at 200 ppm [1] | mortality at 200 ppm [2] | mortality at 200 ppm [3] | percent effect (mortality or growth inhibition) at 200 ppm [5] | percent control (mortality, anti-feedant effect or growth inhibition) at 200 ppm [7] | percent control (mortality, anti-feedancy or growth inhibition) at 12.5 ppm [8]

CCS(=O)(=O)c1cc(-c2cccc(Cl)n2)cnc1-c1nc2cc(C(F)(F)F)ncc2n1C [Compound P59]
≥ 80%: mortality at 200 ppm [6] | mortality at 200 ppm [1] | mortality at 200 ppm [2] | mortality at 200 ppm [3] | percent effect (mortality or growth inhibition) at 200 ppm [5] | percent control (mortality, anti-feedant effect or growth inhibition) at 200 ppm [7] | percent control (mortality, anti-feedancy or growth inhibition) at 12.5 ppm [8]

CCS(=O)(=O)c1cc(-c2cncc(C(F)(F)F)c2)cnc1-c1nc2cc(C(F)(F)F)ncc2n1C [Compound P66]
≥ 80%: mortality at 200 ppm [6] | mortality at 200 ppm [1] | mortality at 200 ppm [2] | mortality at 200 ppm [3] | percent effect (mortality or growth inhibition) at 200 ppm [5] | percent control (mortality, anti-feedant effect or growth inhibition) at 200 ppm [7]

CCS(=O)(=O)c1cc(-c2cccc3c2OC(F)(F)O3)cnc1-c1nc2cc(C(F)(F)F)ncc2n1C [Compound P72]
≥ 80%: mortality at 200 ppm [1] | mortality at 200 ppm [2] | mortality at 200 ppm [3] | percent effect (mortality or growth inhibition) at 200 ppm [5] | percent control (mortality, anti-feedant effect or growth inhibition) at 200 ppm [7] | percent control (mortality, anti-feedancy or growth inhibition) at 12.5 ppm [8]

CCS(=O)(=O)c1cc(-c2ccnc(Cl)c2)cnc1-c1nc2cc(C(F)(F)F)ncc2n1C [Compound P77]
≥ 80%: mortality at 200 ppm [6] | mortality at 200 ppm [1] | mortality at 200 ppm [2] | mortality at 200 ppm [3] | percent effect (mortality or growth inhibition) at 200 ppm [5] | percent control (mortality, anti-feedant effect or growth inhibition) at 200 ppm [7] | percent control (mortality, anti-feedancy or growth inhibition) at 12.5 ppm [8]

CCS(=O)(=O)c1cc(-c2cccnc2)cnc1-c1nc2cc(C(F)(F)F)ncc2n1C [Compound P80]
≥ 80%: mortality at 200 ppm [6] | mortality at 200 ppm [3] | percent effect (mortality or growth inhibition) at 200 ppm [5] | percent control (mortality, anti-feedant effect or growth inhibition) at 200 ppm [7]

CCS(=O)(=O)c1cc(-c2ccncc2)cnc1-c1nc2cc(C(F)(F)F)ncc2n1C [Compound P81]
≥ 80%: mortality at 200 ppm [6] | mortality at 200 ppm [2] | mortality at 200 ppm [3] | percent effect (mortality or growth inhibition) at 200 ppm [5]

CCS(=O)(=O)c1cc(-n2cnc(C(F)(F)F)c2)cnc1-c1nc2cc(C(F)(F)F)ncc2n1C [Compound P87]
≥ 80%: mortality at 200 ppm [1] | mortality at 200 ppm [3] | mortality at 24 ppm [4]

CCS(=O)(=O)c1cc(-c2nccc(C)n2)cnc1-c1nc2cc(C(F)(F)F)ncc2n1C [Compound P103]
≥ 80%: mortality at 200 ppm [6] | mortality at 200 ppm [1] | mortality at 200 ppm [2] | mortality at 200 ppm [3] | percent effect (mortality or growth inhibition) at 200 ppm [5] | percent control (mortality, anti-feedant effect or growth inhibition) at 200 ppm [7] | percent control (mortality, anti-feedancy or growth inhibition) at 12.5 ppm [8]

From patent US9809587B2, “Pesticidally active heterocyclic derivatives with sulphur containing substituents” (Syngenta Participations AG, priority 2014, dated 2017)
